Measurements as given in the supplement of paper PMC10307832.

Key:
Assay in all cases: relative viability (nuclei count vs DMSO), 5 days (fraction); higher = more cells survive
Metformin + Trametinib = compound: CN(C)C(=N)NC(=N)N [Metformin] + CC(=O)Nc1cccc(-n2c(=O)n(C3CC3)c(=O)c3c(Nc4ccc(I)cc4F)n(C)c(=O)c(C)c32)c1 [Trametinib] (partner 0.02 µM)
Procedure, shortened: (§1)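 Nuclei were stained with Hoechst during a one-step fixation (final 0.05% Triton X-100, 1% formaldehyde, 1 ug/ml Hoechst) carried out 5 days after dosing, then counted on 4× images. The cells, lung cancer lines in 1536-well plates, had been dosed by pin tool the day after seeding with one drug alone or a fixed anchor-drug dose plus five library-drug doses (not always all listed) in √10 steps. Relative viability is the nuclei count in treated wells divided by that in vehicle wells, and each value is the median of duplicate plates.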

Metformin + Luminespib = compound: CN(C)C(=N)NC(=N)N [Metformin] + CCNC(=O)c1noc(-c2cc(C(C)C)c(O)cc2O)c1-c1ccc(CN2CCOCC2)cc1 [Luminespib] (partner 0.01 µM)
Procedure, shortened: as §1

Apatinib + Pictilisib = compound: N#CC1(c2ccc(NC(=O)c3cccnc3NCc3ccncc3)cc2)CCCC1 [Apatinib] + CS(=O)(=O)N1CCN(Cc2cc3nc(-c4cccc5[nH]ncc45)nc(N4CCOCC4)c3s2)CC1 [Pictilisib] (partner 1 µM)
Procedure, shortened: as §1

Apatinib + Olaparib = compound: N#CC1(c2ccc(NC(=O)c3cccnc3NCc3ccncc3)cc2)CCCC1 [Apatinib] + O=C(c1cc(Cc2n[nH]c(=O)c3ccccc23)ccc1F)N1CCN(C(=O)C2CC2)CC1 [Olaparib] (partner 8 µM)
Procedure, shortened: as §1

Row | Cell Line | relative viability (Metformin + Trametinib; first compound 31.62 µM) | relative viability (Metformin + Trametinib; first compound 100 µM) | relative viability (Metformin + Trametinib; first compound 316.23 µM) | relative viability (Metformin + Trametinib; first compound 1000 µM) | relative viability (Metformin + Luminespib; first compound 10 µM) | relative viability (Metformin + Luminespib; first compound 31.62 µM) | relative viability (Metformin + Luminespib; first compound 100 µM) | relative viability (Metformin + Luminespib; first compound 316.23 µM) | relative viability (Metformin + Luminespib; first compound 1000 µM) | relative viability (Apatinib + Pictilisib; first compound 0.08 µM) | relative viability (Apatinib + Pictilisib; first compound 0.253 µM) | relative viability (Apatinib + Pictilisib; first compound 0.8 µM) | relative viability (Apatinib + Pictilisib; first compound 2.53 µM) | relative viability (Apatinib + Pictilisib; first compound 8 µM) | relative viability (Apatinib + Olaparib; first compound 0.08 µM) | relative viability (Apatinib + Olaparib; first compound 0.253 µM) | relative viability (Apatinib + Olaparib; first compound 0.8 µM) | relative viability (Apatinib + Olaparib; first compound 2.53 µM) | relative viability (Apatinib + Olaparib; first compound 8 µM) | relative viability (Metformin + Trametinib; first compound 10 µM)
1 | LCLC-97TM1 | 0.207 | 0.247 | 0.174 | 0.229 | 0.75 | 0.861 | 0.922 | 0.7 | 0.76 | 0.221 | 0.147 | 0.216 | 0.316 | 0.143 | 0.524 | 0.541 | 0.353 | 0.351 | 0.172 | –
2 | NCI-H441 | 0.575 | 0.573 | 0.442 | 0.639 | – | 0.241 | 0.336 | 0.28 | 0.373 | 0.583 | 0.566 | 0.51 | 0.408 | 0.32 | 0.684 | 0.612 | 0.505 | 0.561 | 0.367 | –
3 | NCI-H1651 | 0.999 | 1.01 | 0.903 | 1 | 1.19 | 1.3 | 1.06 | 0.828 | 0.989 | 0.665 | 0.565 | 0.494 | 0.614 | 0.476 | 0.192 | 0.206 | 0.186 | 0.17 | 0.172 | 0.908
4 | NCI-H1944 | 0.412 | 0.38 | 0.365 | 0.415 | 0.815 | 0.902 | 0.895 | 0.725 | 0.804 | 0.344 | 0.345 | 0.306 | 0.282 | 0.303 | 0.407 | 0.378 | 0.37 | 0.346 | 0.319 | 0.37
